The source of these data is paper PMC11909324 (Journal of the Science of Food and Agriculture, 2024).

In data set [1] the target is T1, xanthine oxidase (XO) (Bos taurus, UniProt P80457).
T1 construct: XO (from bovine milk); purchased Merck (Darmstadt, Germany); host or cells: bovine milk (natural source)
Briefly: XO assay with xanthine as substrate (uric acid formation, HPLC-UV).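 For all read-outs here: incubations in 0.05 mol L^−1 sodium phosphate buffer, with uric acid and remaining xanthine both quantified by HPLC-UV.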 In kind it is biochemical, bovine. The conditions noted are these: for IC50: XO 0.0003 U mL^−1, 8 min, 37 °C, pH 7.5, read-out: IC50, xanthine oxidation; for IC50 / XO-catalyzed uric acid formation / inhibition at 20 µM / decrease in uric acid production (inhibition of XO-catalyzed xanthine oxidation): xanthine 5 μmol L^−1; for XO-catalyzed uric acid formation: inhibitor 5 μmol L^−1; for inhibition at 20 µM / decrease in uric acid production (inhibition of XO-catalyzed xanthine oxidation): inhibitor 20 μmol L^−1; for inhibition at 20 µM: read-out: decrease in uric acid production (inhibition of XO-catalyzed xanthine oxidation); for α = IC50 of flavonoid/IC50 of positive control, xanthine oxidation: relative to APU.

Data set [2] concerns the target T1, xanthine oxidase (XO). Briefly: XO assay with 6MP as substrate (6-thiouric acid formation, HPLC-UV).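 For all read-outs here: incubation in 0.05 mol L^−1 sodium phosphate buffer, with 6MP and 6-thiouric acid quantified by HPLC-UV and conversion taken as the product share of substrate plus product.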 In kind it is biochemical, bovine. To be noted: for IC50: XO 0.01 U mL^−1, 25 min, 37 °C, pH 7.5, read-out: IC50, 6MP oxidation; for fold stronger inhibition than APU, 6MP assay: based on IC50 values; for XO-catalyzed 6-thiouric acid formation: inhibitor 5 μmol L^−1; for IC50(6MP)/IC50(xanthine): ratio of IC50 values with the two substrates; for α = IC50 of flavonoid/IC50 of positive control, 6MP oxidation: relative to APU.

Data set [3] deals with T1, xanthine oxidase (XO). The data set is described as follows: Fluorescence quenching studies of polyphenol-XO complexes. In kind it is binding, bovine. To be noted: for Log K SV ± SEM (Stern–Volmer quenching constant): K SV in L mol^−1. As for the experimental part: Increasing concentrations of polyphenols (0, 2, 4, 6, 8 and 10 μmol L^−1) were added to a standard amount of XO (0.4 μmol L^−1) in sodium phosphate buffer (0.05 mol L^−1, pH 7.5). Then, the emission spectra of XO were recorded using 280 nm excitation wavelength. The inner‐filter effects of silymarin components/metabolites were corrected based on the following equation[39], [41], [42]: (1) Icor=Iobs×e^Aex+Aem/2 where I cor is the corrected and I obs is the observed emission intensity; while A ex and A em are the absorbance of polyphenols at the excitation and emission wavelengths applied, respectively. Polyphenol‐induced fluorescence quenching was evaluated at 335 nm. Stern–Volmer quenching constants (K SV; unit: L mol^−1) of polyphenol–XO complexes were determined using the graphical application of the Stern–Volmer equation[43], [44], [45]: (2) I0/I=1+KSV×Q where I 0 and I are the emission signals of XO without and with the polyphenols tested, respectively, and [Q] denotes the molar concentration (mol L^−1) of the quencher (polyphenols). The binding constants (K; unit: L mol^−1) of polyphenol–XO complexes were calculated applying the modified Stern–Volmer equation[43], [44], [45]: (3) I0/I0−I=1/fa×K×1/Q+1/fa where I 0, I and [Q] have the same meaning as in Eqn (2), and f a is the fraction of the accessible fluorophore.

The target in data set [4] is T1, xanthine oxidase (XO). Briefly: Reversibility of XO inhibition (preincubation, increasing xanthine concentrations). In kind it is biochemical, bovine. To be noted: SBS 5 μmol L^−1, DSC and DSCS 0.5 μmol L^−1; 10 min preincubation; xanthine 5, 25, 50 μmol L^−1. As to the method: After 8 min incubation (700 rpm, 37 °C), the reaction was stopped, and the samples were treated in the same way as described in the previous paragraph.

For data set [5] the following is noted: cited from earlier work.
For data set [6] the following is noted: cited from earlier work. The source holds these as a separate data set.
The mark [7] stands for this setting: inhibitor 20 μmol L^−1, 6MP 5 μmol L^−1.
[8] abbreviates: λex 280 nm, λem 335 nm, XO 0.4 μmol L^−1, pH 7.5.
The mark [9] stands for this setting: association constant K in L mol^−1, λex 280 nm, λem 335 nm, XO 0.4 μmol L^−1, pH 7.5, read-out: Log K ± SEM (binding constant, modified Stern–Volmer) (converted).
Where [10] appears, read: association constant K in L mol^−1, λex 280 nm, λem 335 nm, XO 0.4 μmol L^−1, pH 7.5.

Where two headings read alike, the source gives them in different places.

T1 sequence (P80457 whole entry): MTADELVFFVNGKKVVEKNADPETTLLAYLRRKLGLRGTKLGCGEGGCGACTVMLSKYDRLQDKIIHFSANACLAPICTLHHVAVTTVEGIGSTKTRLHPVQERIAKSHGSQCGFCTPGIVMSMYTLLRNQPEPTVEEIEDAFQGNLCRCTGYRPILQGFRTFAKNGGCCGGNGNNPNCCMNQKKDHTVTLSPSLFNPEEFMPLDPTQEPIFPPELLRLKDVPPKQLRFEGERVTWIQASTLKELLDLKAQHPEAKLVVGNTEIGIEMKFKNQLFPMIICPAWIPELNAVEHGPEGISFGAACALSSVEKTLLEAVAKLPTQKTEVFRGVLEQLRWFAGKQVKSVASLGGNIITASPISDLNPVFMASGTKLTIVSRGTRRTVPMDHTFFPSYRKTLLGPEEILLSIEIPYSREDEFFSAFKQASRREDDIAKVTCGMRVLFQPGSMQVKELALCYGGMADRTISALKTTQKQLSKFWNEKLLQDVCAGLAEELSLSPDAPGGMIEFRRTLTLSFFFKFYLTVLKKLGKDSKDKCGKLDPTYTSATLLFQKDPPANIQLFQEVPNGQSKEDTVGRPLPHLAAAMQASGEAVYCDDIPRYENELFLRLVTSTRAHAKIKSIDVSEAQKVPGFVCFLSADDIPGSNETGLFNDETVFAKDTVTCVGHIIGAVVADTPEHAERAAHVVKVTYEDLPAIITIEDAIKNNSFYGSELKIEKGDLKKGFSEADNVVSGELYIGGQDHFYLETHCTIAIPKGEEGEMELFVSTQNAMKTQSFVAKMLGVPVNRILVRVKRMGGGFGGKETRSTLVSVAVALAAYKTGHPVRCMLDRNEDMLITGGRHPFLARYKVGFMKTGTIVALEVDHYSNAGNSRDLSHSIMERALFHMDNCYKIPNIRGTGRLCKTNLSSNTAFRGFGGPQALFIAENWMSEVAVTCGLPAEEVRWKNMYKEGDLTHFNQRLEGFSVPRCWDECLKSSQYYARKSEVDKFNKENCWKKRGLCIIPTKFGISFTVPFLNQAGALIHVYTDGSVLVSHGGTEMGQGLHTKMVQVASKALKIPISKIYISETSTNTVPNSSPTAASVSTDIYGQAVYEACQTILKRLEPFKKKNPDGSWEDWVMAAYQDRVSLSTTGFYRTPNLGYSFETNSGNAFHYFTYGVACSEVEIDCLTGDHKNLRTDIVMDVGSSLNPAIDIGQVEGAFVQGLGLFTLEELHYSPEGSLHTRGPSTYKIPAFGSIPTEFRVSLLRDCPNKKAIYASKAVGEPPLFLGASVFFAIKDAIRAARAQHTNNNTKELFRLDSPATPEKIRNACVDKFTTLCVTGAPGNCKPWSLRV

By IC50 is commonly meant the midpoint of a concentration-inhibition curve. By inhibition is commonly meant the percentage by which the read-out fell short of the control. For the molecule `COc1cc([C@@H]2Oc3c(O)cc(-c4oc5cc(O)cc(O)c5c(=O)c4O)cc3[C@H]2CO)ccc1O` [DSC, 3,5,7‐trihydroxy‐2‐[(2R,3S)‐7‐hydroxy‐2‐(4‐hydroxy‐3‐methoxyphenyl)‐3‐(hydroxymethyl)‐2,3‐dihydro‐1‐benzofuran‐5‐yl]chromen‐4‐one], at xanthine oxidase (XO) [1], the IC50 was found to be 90 nM; the “XO-catalyzed uric acid formation” value is given as “almost completely abolished”; the inhibition at 20 µM is 96%; the “α = IC50 of flavonoid/IC50 of positive control, xanthine oxidation” value (“α = IC50 … xanthine oxidation” below) turned out to be 0.35. In addition, the “fold stronger inhibitor of xanthine oxidation compared to SC” value on xanthine oxidase (XO) [1] (based on IC50 values) was determined as 50 fold. Further, at xanthine oxidase (XO) [2] (6MP 5 μmol L^−1), the IC50 was found to be 290 nM and the “XO-catalyzed 6-thiouric acid formation” value is reported as “almost completely abolished”. For the same molecule, on xanthine oxidase (XO) [2], the “fold stronger inhibition than APU, 6MP assay” value is around 15 fold; the “IC50(6MP)/IC50(xanthine)” value is 3.2; the “α = IC50 of flavonoid/IC50 of positive control, 6MP oxidation” value (shortened to “α = IC50 of flavonoid/IC50 … 6MP oxidation”) is on record as 0.07. The “decrease in 6-thiouric acid formation (inhibition of XO-catalyzed 6MP oxidation)” value at xanthine oxidase (XO) [2] (setting [7]) is listed as “marked decreases”. On xanthine oxidase (XO) [2] (inhibitor 20 μmol L^−1, 6MP 5 μmol L^−1, read-out: decrease in 6-thiouric acid formation (inhibition of XO-catalyzed 6MP oxidation)), the inhibition at 20 µM was above 80%. Further, the “Log K SV ± SEM (Stern–Volmer quenching constant)” value (from here on “Log K SV ± SEM”) on xanthine oxidase (XO) [3] (setting [8]) stood at 4.68 ± 0.01. The Kd at xanthine oxidase (XO) [3] (setting [9]) is 7760 nM. The Kd on xanthine oxidase (XO) [3] (fluorescence quenching, read-out: K (binding constant) of polyphenol–XO complex) is below 10000 nM. Further, the “reversibility of the inhibitory action on XO” value on xanthine oxidase (XO) [4] is “reversible”.

Turning to `O=S(=O)(O)Oc1cc(O)cc(C=Cc2ccc(O)cc2)c1` [R3S, resveratrol‐3‐sulfate], the inhibition at 20 µM at xanthine oxidase (XO) [1] stood at 27%. Further, on xanthine oxidase (XO) [2] (setting [7]), the “decrease in 6-thiouric acid formation (inhibition of XO-catalyzed 6MP oxidation)” value is on record as “weak to moderate inhibitors”. The peak plasma concentrations in data set [5] (humans, peroral high doses (0.5–5.0 g) of RES) is 10 to 20 µmol/L.

`COc1cc([C@@H]2Oc3cc([C@H]4Oc5cc(O)cc(O)c5C(=O)[C@@H]4O)ccc3O[C@H]2CO)ccc1OS(=O)(=O)O` [SBS, silybin B‐20‐O‐sulfate]: at xanthine oxidase (XO) [1], the IC50 stood at 240 nM; the “XO-catalyzed uric acid formation” value is reported as “almost completely abolished”; the “decrease in uric acid production (inhibition of XO-catalyzed xanthine oxidation)” value is given as “more than 80%”; the “α = IC50 … xanthine oxidation” value is 0.92. At xanthine oxidase (XO) [2] (6MP 5 μmol L^−1), the IC50 worked out at 570 nM and the “XO-catalyzed 6-thiouric acid formation” value is given as “almost completely abolished”. Further, on xanthine oxidase (XO) [2], the “fold stronger inhibition than APU, 6MP assay” value is recorded as around 7 fold; the “IC50(6MP)/IC50(xanthine)” value is reported as 2.4; the “α = IC50 of flavonoid/IC50 … 6MP oxidation” value was determined as 0.14. For the same molecule, the “Log K SV ± SEM” value at xanthine oxidase (XO) [3] (setting [8]) is recorded as 4.63 ± 0.01. The “Log K ± SEM (binding constant, modified Stern–Volmer)” value (from here on “Log K ± SEM”) on xanthine oxidase (XO) [3] (setting [10]) came out at 5.05 ± 0.02. Besides, the “K (binding constant) of polyphenol–XO complex” value on xanthine oxidase (XO) [3] (fluorescence quenching) is given as “above 10^5 L mol^−1”. Besides, the “reversibility of the inhibitory action on XO” value on xanthine oxidase (XO) [4] is “reversible”.

Take `COc1cc(C2Oc3c(O)cc(-c4oc5cc(O)cc(O)c5c(=O)c4O)cc3C2CO)ccc1OS(=O)(=O)O` (mixture of isomers) [DSCS, 2,3‐dehydrosilychristin‐19‐O‐sulfate]: at xanthine oxidase (XO) [1], the IC50 is 80 nM; the “XO-catalyzed uric acid formation” value is “almost completely abolished”; the “α = IC50 … xanthine oxidation” value is on record as 0.31. On xanthine oxidase (XO) [2] (6MP 5 μmol L^−1), the IC50 came to 210 nM and the “XO-catalyzed 6-thiouric acid formation” value was “almost completely abolished”. On xanthine oxidase (XO) [2], the “fold stronger inhibition than APU, 6MP assay” value is on record as “approximately 20 fold” and the “α = IC50 of flavonoid/IC50 … 6MP oxidation” value came out at 0.05. For the same molecule, on xanthine oxidase (XO) [3] (setting [8]), the “Log K SV ± SEM” value amounted to 4.68 ± 0.01. Moreover, at xanthine oxidase (XO) [3] (setting [10]), the “Log K ± SEM” value is reported as 5.12 ± 0.03. The “K (binding constant) of polyphenol–XO complex” value at xanthine oxidase (XO) [3] (fluorescence quenching) was “above 10^5 L mol^−1”. Also, the “reversibility of the inhibitory action on XO” value at xanthine oxidase (XO) [4] is given as “reversible”.

On to isosilybin A‐20‐O‐sulfate [ISAS], for which, on xanthine oxidase (XO) [1], the IC50 came to 680 nM; the “decrease in uric acid production (inhibition of XO-catalyzed xanthine oxidation)” value is listed as “more than 80%”; the “α = IC50 … xanthine oxidation” value is on record as 2.62. Further, on xanthine oxidase (XO) [2] (6MP 5 μmol L^−1), the IC50 amounted to 2860 nM. In addition, at xanthine oxidase (XO) [2], the “IC50(6MP)/IC50(xanthine)” value was 4.2 and the “α = IC50 of flavonoid/IC50 … 6MP oxidation” value came out at 0.68. The “Log K SV ± SEM” value at xanthine oxidase (XO) [3] (setting [8]) is on record as 4.49 ± 0.01. For the same molecule, on xanthine oxidase (XO) [3] (setting [10]), the “Log K ± SEM” value turned out to be 4.90 ± 0.04.

For `COc1cc([C@@H]2Oc3c(O)cc([C@H]4Oc5cc(O)cc(O)c5C(=O)[C@@H]4O)cc3[C@H]2CO)ccc1O` [SC, silychristin], at xanthine oxidase (XO) [1], the IC50 was determined as 4500 nM and the “α = IC50 … xanthine oxidation” value is recorded as 17.3. On xanthine oxidase (XO) [2] (6MP 5 μmol L^−1), the IC50 was determined as 10000 nM. Further, at xanthine oxidase (XO) [2], the “IC50(6MP)/IC50(xanthine)” value was 2.2 and the “α = IC50 of flavonoid/IC50 … 6MP oxidation” value worked out at 2.38. The “Log K SV ± SEM” value on xanthine oxidase (XO) [3] (setting [8]) is recorded as 4.43 ± 0.01. Further, the “Log K ± SEM” value on xanthine oxidase (XO) [3] (setting [10]) is reported as 4.81 ± 0.01.

`COc1cc([C@H]2Oc3cc([C@H]4Oc5cc(O)cc(O)c5C(=O)[C@@H]4O)ccc3O[C@@H]2CO)ccc1O` [SA, silybin A]: the “decrease in uric acid production (inhibition of XO-catalyzed xanthine oxidation)” value on xanthine oxidase (XO) [1] is on record as “only weak inhibitors”. Moreover, the “decrease in 6-thiouric acid formation (inhibition of XO-catalyzed 6MP oxidation)” value at xanthine oxidase (XO) [2] (setting [7]) was “weak to moderate inhibitors”. For the same molecule, at xanthine oxidase (XO) [3] (setting [8]), the “Log K SV ± SEM” value was 4.45 ± 0.04. At xanthine oxidase (XO) [3] (setting [9]), the Kd was 19500 nM.

Regarding `Oc1ccc(/C=C/c2cc(O)cc(O)c2)cc1` [RES, resveratrol], the oral bioavailability entry in data set [6] is “less than 1%”. The “decrease in 6-thiouric acid formation (inhibition of XO-catalyzed 6MP oxidation)” value at xanthine oxidase (XO) [2] (setting [7]) is recorded as “weak to moderate inhibitors”.

For the molecule `O=C(O)[C@H]1O[C@@H](Oc2cc(O)cc(/C=C/c3ccc(O)cc3)c2)[C@H](O)[C@@H](O)[C@@H]1O` [R3G, resveratrol‐3‐glucuronide], the “decrease in uric acid production (inhibition of XO-catalyzed xanthine oxidation)” value at xanthine oxidase (XO) [1] is recorded as 10%. The “decrease in 6-thiouric acid formation (inhibition of XO-catalyzed 6MP oxidation)” value at xanthine oxidase (XO) [2] (setting [7]) is recorded as “not significant”. Further, in data set [5] (in vivo), the peak plasma concentrations is 10 to 20 µmol/L.
